Source: PMC12429584, “5-Hydroxylysine Captures the Suicidally-Inactivated Conformational State of Lysine 5,6-Aminomutase” (International Journal of Molecular Sciences, 2025)

Assays:
[1] = target: T1, Lysine 5,6-aminomutase (5,6-LAM) (Acetoanaerobium sticklandii, UniProt E3PRJ4+E3PRJ5); assay: UV-visible and X-band EPR spectroscopy; type: binding; conditions: PLP and dAdoCbl holoenzyme, 100 mM NH4-EPPS pH 8.5, 37 °C; 2.5 mM (UV-vis) or 30 mM (EPR) 5-HL; active site, external aldimine with PLP; mechanism-based (suicide) inhibitor; stereoisomer mixture
T1 construct: gene kamD
T1 sequence (E3PRJ5 1-519 limits assumed): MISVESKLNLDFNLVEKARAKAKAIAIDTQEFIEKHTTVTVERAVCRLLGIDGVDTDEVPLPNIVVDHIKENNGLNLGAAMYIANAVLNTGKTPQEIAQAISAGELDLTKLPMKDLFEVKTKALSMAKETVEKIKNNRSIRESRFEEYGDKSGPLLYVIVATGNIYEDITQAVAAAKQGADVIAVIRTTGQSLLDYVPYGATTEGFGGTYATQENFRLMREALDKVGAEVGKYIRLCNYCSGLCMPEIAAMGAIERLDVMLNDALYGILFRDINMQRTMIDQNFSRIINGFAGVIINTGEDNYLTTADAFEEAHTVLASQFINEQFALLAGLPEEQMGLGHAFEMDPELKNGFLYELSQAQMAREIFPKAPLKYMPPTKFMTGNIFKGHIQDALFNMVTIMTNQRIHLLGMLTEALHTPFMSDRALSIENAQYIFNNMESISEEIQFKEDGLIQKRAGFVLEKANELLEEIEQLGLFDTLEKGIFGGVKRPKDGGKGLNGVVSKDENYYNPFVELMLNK
T1 sequence (E3PRJ4 1-262): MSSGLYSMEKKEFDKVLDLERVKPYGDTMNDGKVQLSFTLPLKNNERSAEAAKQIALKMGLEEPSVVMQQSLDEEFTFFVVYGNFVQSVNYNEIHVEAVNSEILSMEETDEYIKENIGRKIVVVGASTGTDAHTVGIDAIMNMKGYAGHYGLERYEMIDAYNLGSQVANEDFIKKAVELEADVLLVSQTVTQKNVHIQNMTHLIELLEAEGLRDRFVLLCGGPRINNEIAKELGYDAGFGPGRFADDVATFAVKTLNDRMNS

[2] = target: T1, Lysine 5,6-aminomutase (5,6-LAM); conditions: turnover to 2,5-DAH at 1 and 3 min; PLP and dAdoCbl as cofactors

NCC(O)CCC(N)C(=O)O (racemic) [5-HL, 5-hydroxylysine]
UV-visible and X-band EPR spectroscopy [1]: These spectral changes demonstrate that 5-HL mimics the initial steps of transaldimination and Co–C bond rupture

NCCCC[C@@H](N)C(=O)O [D-lysine]
thin-layer chromatography of product, ninhydrin [2]: bottom spot corresponding to D-lysine and the top spot corresponding to the product
